{
  "source": "paper PMC10131204",
  "about": "(JACS Au, 2023)",
  "key": {"FKBP-cSnap and FRB-nSnap": {"system": "FKBP-cSnap and FRB-nSnap", "type": "biochemical"}, "DOR [1]": {"system": "DOR", "type": "cell-based", "conditions": "10 µM compound, off-DNA"}, "DOR [2]": {"target": "DOR", "conditions": "cited from earlier work"}},
  "note": "Read-outs that look alike come from different tables or passages of the source.",
  "data": [
    {"compound": "CCC(C)(C)C(=O)C(=O)N1CCCC[C@H]1C(=O)O[C@H](CCc1ccc(OC)c(OC)c1)c1cccc(OCC(=O)O)c1", "note": "[SLF, synthetic ligand for FKBP]", "values": [
      {"measurement": "protein labeling with BG-FAM (SnapTag reconstitution)", "setting": "FKBP-cSnap and FRB-nSnap", "value": "did not induce protein labeling"}
    ]},
    {"compound": "Met-Enk-RF: a β-arrestin-biased DOR agonist peptide; strong G-protein bias for the MOR (YGGFMRF; Met-enkephalin-Arg-Phe; UniProt P01210 261-267, looked up)", "values": [
      {"measurement": "biotinylation of the DOR (β-arrestin activation) in gel-based assay", "setting": "DOR [1]", "value": "markedly increased the biotinylation level"}
    ]},
    {"compound": "Dmt-Pro-Phe-Phe", "values": [
      {"measurement": "Ki", "setting": "DOR [2]; high-affinity parental peptide", "value": "~28", "unit": "nM"}
    ]},
    {"compound": "Tyr-Tic", "values": [
      {"measurement": "Ki", "setting": "DOR [2]; low-affinity parental peptide", "value": "~240", "unit": "nM"}
    ]}
  ]
}
